Series [1] concerns AnxA2. In words: shRNA knockdown in HuH7 cells, AnxA2 Western blot. The class given is cell-based, human. To be noted: HuH7, stable or transient transfection, vs control shRNA. Here is the method: (§1) To silence human AnxA2, a 29mer pRS-shRNA was used: (sh3, […] (SEQ ID NO: 105)) (Origene). The control pRS-shGFP vector [shCtl] contained a non-effective 29mer shGFP cassette.
(§2) HepG2, HuH7, COS-1, BSC40 and HEK293 cell were grown in Dulbecco's modified Eagle's medium (DMEM) with 10% fetal bovine serum (FBS; Gibco), whereas CHO-K1 and CHO-K1 mutant Pgsd-677 cells that lack heparan sulfate proteoglycans^26 were grown in Ham's F12:DMEM (50:50) media with 10% FBS. Y1 mouse adrenal cells were grown in F12K medium with 15% horse serum and 2.5% FBS. All cells were maintained at 37° C. under 5% CO2. At 80-90% confluence, HuH7 and CHO-K1 cells were transiently transfected with Lipofectamine™ 2000 (Invitrogen), HEK293 cells were transfected with Effectene™ (Qiagen) and HepG2 cells were transfected with Fugene™ HD (Roche). […] For analysis of the various AnxA2 mutants in HEK293 cells, 24 h post-transfection, the cells were washed and then incubated for another 24 h in complete medium containing 50 μM of the proteasome inhibitor ALLN (Calbiochem). […]
(§3) Western blotting experiments were made on samples that were reduced in Laemmli buffer, heated and resolved on 8% glycine SDS-PAGE gels. […] Quantitation of band intensity was done with the ImageJ™ software version 1.37 (Wayne Rasband, National Institutes of Health, Bethesda, Md.).
Background: Immunoblotting shows a protein as a band on a membrane.

Series [2] deals with LDLR. Put plainly: shRNA knockdown in HuH7 cells, LDLR Western blot. The class given is cell-based, human. The note with it: HuH7, stable or transient transfection, vs control shRNA. Here is the method:
as §1, §2, §3

Series [3] has as its system LDLR. In words: LDLR Western blot of transfected HEK293 cells. The series is classed as cell-based, human. The note with it: HEK293 cells (negligible PCSK9), with or without p11. Here is the method:
HepG2, HuH7, COS-1, BSC40 and HEK293 cell were grown in Dulbecco's modified Eagle's medium (DMEM) with 10% fetal bovine serum (FBS; Gibco), whereas CHO-K1 and CHO-K1 mutant Pgsd-677 cells that lack heparan sulfate proteoglycans^26 were grown in Ham's F12:DMEM (50:50) media with 10% FBS. Y1 mouse adrenal cells were grown in F12K medium with 15% horse serum and 2.5% FBS. All cells were maintained at 37° C. under 5% CO2. At 80-90% confluence, HuH7 and CHO-K1 cells were transiently transfected with Lipofectamine™ 2000 (Invitrogen), HEK293 cells were transfected with Effectene™ (Qiagen) and HepG2 cells were transfected with Fugene™ HD (Roche). […] For analysis of the various AnxA2 mutants in HEK293 cells, 24 h post-transfection, the cells were washed and then incubated for another 24 h in complete medium containing 50 μM of the proteasome inhibitor ALLN (Calbiochem). Stable transfectants of shRNA-AnxA2 were obtained in HuH7 cells following puromycin selection.
(§4) Western blotting experiments were made on samples that were reduced in Laemmli buffer, heated and resolved on 8% glycine SDS-PAGE gels. Separated proteins were then electro-transferred onto nitrocellulose, and probed with HRP-conjugated anti-V5 or anti-HA tags or with primary antibodies. […] Quantitation of band intensity was done with the ImageJ™ software version 1.37 (Wayne Rasband, National Institutes of Health, Bethesda, Md.).

The subject of series [4] is AnxA2. Put plainly: 5-Azacytidine treatment of HepG2 cells, AnxA2 expression. The series is classed as cell-based, human.
Excerpt: as §4
(§5) For RNA preparation and cDNA synthesis cells were washed with PBS and incubated with Trizol reagent (Life Technologies). Total RNA was extracted and resuspended in ˜30 μL of water. Isolated RNA integrity was electrophoretically verified by ethidium bromide staining and optical density. Typically, 250 ng of total RNA were used for cDNA synthesis in a total volume of 20 μL using SuperScript™ II reverse transcriptase, 25 μg/mL oligo(dT)12-18, 0.5 mmol/L 2′-deoxynucleoside 5′-triphosphates, and 40 U of RNaseOUT™, all products from Life Technologies, and used according to the recommendations of the manufacturer. All primers were designed using Primer3™ software and optimized for each amplification. […] Each reaction was in a final volume of 25 μL using the QuantiTec SYBR Green™ PCR master mix from Qiagen, cDNA dilutions that gave threshold cycle (Ct) values for both amplifications, and primers for ribosomal-protein genes or the chosen target gene. […]

Another series relates to PCSK9. Put plainly: 5-Azacytidine treatment of HepG2 cells, PCSK9 expression. The class given is cell-based, human.
Excerpt: as §4, §5

In series [5] the test system is LDLR. Put plainly: 5-Azacytidine treatment of HepG2 cells, LDLR expression. The class given is cell-based, human.
Excerpt: as §4, §5

The next series concerns HMG-CoA reductase. In words: 5-Azacytidine treatment of HepG2 cells, HMG-CoA reductase expression. The series is classed as cell-based, human. To be noted: HepG2, qPCR. Here is the method: For RNA preparation and cDNA synthesis cells were washed with PBS and incubated with Trizol reagent (Life Technologies). Total RNA was extracted and resuspended in ˜30 μL of water. Isolated RNA integrity was electrophoretically verified by ethidium bromide staining and optical density. Typically, 250 ng of total RNA were used for cDNA synthesis in a total volume of 20 μL using SuperScript™ II reverse transcriptase, 25 μg/mL oligo(dT)12-18, 0.5 mmol/L 2′-deoxynucleoside 5′-triphosphates, and 40 U of RNaseOUT™, all products from Life Technologies, and used according to the recommendations of the manufacturer. All primers were designed using Primer3™ software and optimized for each amplification. Each cDNA sample was submitted to 2 polymerase chain reaction (PCR) amplifications: one for normalizing ribosomal-protein gene (S14 for human and S16 for mouse cDNAs) and the other for the gene of interest, each in triplicate. Each reaction was in a final volume of 25 μL using the QuantiTec SYBR Green™ PCR master mix from Qiagen, cDNA dilutions that gave threshold cycle (Ct) values for both amplifications, and primers for ribosomal-protein genes or the chosen target gene. The Mx3500P™ system from Stratagene was used to perform and analyze the QPCR reactions, using S14 amplifications as normalizers and control samples as calibrators^25.35.
(In general: In qPCR the cycle at which signal appears reflects the starting amount.)

The next series concerns Annexin II. To be noted: LNCaP cells; cited from earlier work.

Take “AnxA2-shRNA: 29mer pRS-shRNA silencing human AnxA2, GCATCAGCACTGAAGTCAGCCTTATCTGG (SEQ ID NO: 105)”: the “knockdown of AnxA2” value in the series with AnxA2 [1] is recorded as 60-70%. Further, in the series on LDLR [2], the “reduction of the LDLR levels” value is recorded as 40-70%. For the same compound, the “levels of endogenous LDLR” value in the series on LDLR [3] is “None of these treatments affected the levels of endogenous LDLR”.

Take `Nc1ncn([C@@H]2O[C@H](CO)[C@@H](O)[C@H]2O)c(=O)n1` [5-Azacytidine]: the “AnxA2 mRNA expression” value with AnxA2 [4] (HepG2, 10 μM, qPCR) is 3 fold. Further, the AnxA2 protein level result in the series on AnxA2 [4] (HepG2, Western blot) was “highly increased”. Also, in the series with PCSK9 (HepG2, 24 or 48 hours of treatment), the “secreted form of PCSK9 by western blot” value is given as “barely detectable”. Besides, the “mRNA level of PCSK9” value in the series with PCSK9 (HepG2, qPCR) was “drastically decreased”. The “LDLR expression at the protein level” value with LDLR [5] (HepG2, Western blot) is “increased expression”. Also, in the series with LDLR [5] (HepG2, qPCR), the “LDLR mRNA level” value was “increased”. The “HMG-CoA reductase mRNA level” value in the series on HMG-CoA reductase is “decreased”. For the same compound, the “expression of Annexin II” value in the series on Annexin II is on record as “induced an increase of expression”.

The record behind these values is patent US8673850B2, “PCSK9 inhibitors and methods of use thereof” (Institut de Recherches Cliniques de Montreal, priority 2008, dated 2014).
